test system: SHBG; assay: Serum SHBG level prior to patch application in the pharmacokinetic study; format: in vivo, human; settings: mean±SEM, surgically menopausal women on the estrogen
Description: The structure and proposed functions of SHBG have been described and characterized. See, for example, Rosner et al., Sex Hormone-Binding Globulin Mediates Steroid Hormone Signal Transduction at the Plasma Membrane, J. Steroid Biochem. Mol. Biol. Vol. 69:481-5 (1999); Petra, P. H. The plasma Sex Steroid Binding Protein (SBP or SHBG). A Critical Review of Recent Developments on the Structure, Molecular Biology, and Function, J. Steroid Biochem. Mol. Biol., Vol. 40:735-53 (1991). A variety of methods have been used to quantify the serum concentrations of SHBG, including ammonium sulfate precipitation, gel filtration, equilibrium dialysis, dextran-coated charcoal, and radioimmunoassay. See, for example, Khan et al., Radioimmunoassay for Human Testosterone-Estradiol-Binding Globulin, J. Clinical Endocrinology and Metabolism, Vol. 54:705-710 (1982). […] Serum SHBG levels are known to be elevated in women treated with oral estrogens, estrogen-containing oral contraceptives, clomiphene, tamoxifen, raloxifene, phenytoin, and sodium valproate, as well as in women who are pregnant, hyperthyroid, have chronic liver disease and HIV-infection. See for example, Bond et al., Sex Hormone Binding Globulin in Clinical Perspective, Acta. Obstet. Gynecol. […]

Question: Which SHBG does the source give for C[C@]12CC[C@@H]3c4ccc(O)cc4CC[C@H]3[C@@H]1CC[C@@H]2O [estradiol] here?
Answer: Its SHBG is 90.8 ± 12.9 nmol/L.

target: T1, sex hormone binding globulin (SHBG) (Homo sapiens, UniProt P04278); assay: not given; settings: adapted from Dunn et al. 1981; human plasma; cited from earlier work
T1 sequence (P04278 30-402): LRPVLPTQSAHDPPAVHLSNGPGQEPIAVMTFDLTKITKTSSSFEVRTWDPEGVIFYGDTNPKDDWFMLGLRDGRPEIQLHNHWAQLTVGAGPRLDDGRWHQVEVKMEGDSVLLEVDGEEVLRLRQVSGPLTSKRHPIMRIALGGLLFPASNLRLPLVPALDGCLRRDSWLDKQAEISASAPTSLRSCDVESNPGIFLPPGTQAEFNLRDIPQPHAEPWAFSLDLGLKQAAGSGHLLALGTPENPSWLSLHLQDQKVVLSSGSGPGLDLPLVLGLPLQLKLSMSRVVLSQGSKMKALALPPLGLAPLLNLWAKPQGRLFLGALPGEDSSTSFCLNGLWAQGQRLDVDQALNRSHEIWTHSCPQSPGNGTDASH

Question: Which “K (binding affinity constant for SHBG)” value does the source give for CC(=O)[C@@]1(O)CC[C@H]2[C@@H]3CCC4=CC(=O)CC[C@]4(C)[C@H]3CC[C@@]21C [17-hydroxyprogesterone] here?
Answer: Its value is 9.9 10^6 Liter/mole.

Question: For C[C@]12CCC(O)C[C@@H]1CC[C@@H]1[C@@H]2CC[C@]2(C)[C@@H](O)CC[C@@H]12 (some centres unmarked) [androstanediol], which “K (binding affinity constant for SHBG)” value is on record?
Answer: The value was 1300 10^6 Liter/mole.

Question: For C[C@]12CCC(=O)C=C1CC[C@@H]1[C@@H]2CC[C@]2(C)C(=O)CC[C@@H]12 [androstenedione], which “K (binding affinity constant for SHBG)” value is on record?
Answer: Its value is 29 10^6 Liter/mole.

Question: Which “K (binding affinity constant for SHBG)” value does the source give for C[C@]12CC[C@@H](O)C[C@@H]1CC[C@@H]1[C@@H]2CC[C@]2(C)C(=O)CC[C@@H]12 [androsterone] here?
Answer: The value was 14 10^6 Liter/mole.

Question: Which “K (binding affinity constant for SHBG)” value does the source give for C[C@]12CC[C@H](O)CC1=CC[C@@H]1[C@@H]2CC[C@]2(C)C(=O)CC[C@@H]12 [dehydroepiandrosterone] here?
Answer: The value was 66 10^6 Liter/mole.

Question: With C[C@]12CCC(=O)C[C@@H]1CC[C@@H]1[C@@H]2CC[C@]2(C)[C@@H](O)CC[C@@H]12 [dihydrotestosterone] as the molecule, how does the “K (binding affinity constant for SHBG)” value read?
Answer: Its value is 5500 10^6 Liter/mole.

Question: For C[C@]12CC[C@@H]3c4ccc(O)cc4CC[C@H]3[C@@H]1C[C@@H](O)[C@@H]2O [estriol], which “K (binding affinity constant for SHBG)” value is on record?
Answer: The value was 4.3 10^6 Liter/mole.

Question: For CC(=O)[C@H]1CC[C@H]2[C@@H]3CCC4=CC(=O)CC[C@]4(C)[C@H]3CC[C@]12C [progesterone], which “K (binding affinity constant for SHBG)” value is on record?
Answer: The value was 8.8 10^6 Liter/mole.

test system: SHBG; assay: not given; settings: known from literature (Bond et al. 1987; Miller et al. 1998); cited from earlier work

Question: With CCN(CC)CCOc1ccc(C(=C(Cl)c2ccccc2)c2ccccc2)cc1 [clomiphene] as the molecule, how does the “Serum SHBG levels in women treated” value read?
Answer: Its value is “elevated”.

Question: For O=C1NC(=O)C(c2ccccc2)(c2ccccc2)N1 [phenytoin], which “Serum SHBG levels in women treated” value is on record?
Answer: The value was “elevated”.

Question: Which “Serum SHBG levels in women treated” value does the source give for O=C(c1ccc(OCCN2CCCCC2)cc1)c1c(-c2ccc(O)cc2)sc2cc(O)ccc12 [raloxifene] here?
Answer: Its value is “elevated”.

Question: With CCCC(CCC)C(=O)[O-].[Na+] [sodium valproate] as the molecule, how does the “Serum SHBG levels in women treated” value read?
Answer: The value was “elevated”.

Question: For CC/C(=C(\c1ccccc1)c1ccc(OCCN(C)C)cc1)c1ccccc1 [tamoxifen], which “Serum SHBG levels in women treated” value is on record?
Answer: The value was “elevated”.

Reference: patent US8551516B2, “Administration of non-oral androgenic steroids to women” (Actavis, Inc., priority 1999, dated 2013)
